Source: article PMC4778124, “A continuous sirtuin activity assay without any coupling to enzymatic or chemical reactions” (Scientific Reports, 2016)
Non-standard residues stand in square brackets, D forms with d. Residues, ends and D or L forms follow the SMILES beside them. Groups on a side chain read outwards from the residue. Lys(thiomyristoyl) = CCCCCCCCCCCCCC(=S)NCCCC[C@H](N)C(=O)O; Tyr(3-NO2) = N[C@@H](Cc1ccc(O)c([N+](=O)[O-])c1)C(=O)O; Aun = NCCCCCCCCCCC(=O)O; 2Abz = Nc1ccccc1C(=O)O

What was measured:
Assay type in all cases: biochemical
Sirt5 = target: T1, Sirt5 (Homo sapiens, UniProt Q9NXA8); assay: Continuous fluorescence assay, substrate kinetics; conditions: Sirt5 500 nM; MTP fluorescence reader (footnote b)
T1 construct: made in house
T1 sequence (Q9NXA8 37-310): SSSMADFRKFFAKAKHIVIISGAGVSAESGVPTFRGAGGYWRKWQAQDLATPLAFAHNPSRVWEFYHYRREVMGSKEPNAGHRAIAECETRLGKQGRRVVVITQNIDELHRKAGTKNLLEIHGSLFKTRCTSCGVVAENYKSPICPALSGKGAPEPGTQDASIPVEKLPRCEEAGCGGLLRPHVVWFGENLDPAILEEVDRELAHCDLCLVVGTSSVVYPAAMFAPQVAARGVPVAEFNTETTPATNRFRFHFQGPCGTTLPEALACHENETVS
Procedure: (§1) The fluorescence measurements were performed on a Hitachi F-4500 fluorescence spectrophotometer (Tokyo, Japan) at λEx = 310 nm and λEm = 405 nm (slitEx = 5 nm, slitEm = 2.5 nm, PMT = 700 V for 3, 4 and 5 as well as slitEx = 10 nm, slitEm = 10 nm, PMT = 950 V for 4a). Each reaction mixture contained assay-buffer, 0.5 mM NAD^+ and various peptide concentrations (0.1–100 μM) and was preincubated for 5 minutes at 37 °C. The reaction was started by adding human sirtuin (0.1–0.5 μM) and observed for 5–10 minutes. Product formation could be monitored by increase of relative fluorescence. This signal was converted into product concentration via calibration lines. […] The reaction mixture was analyzed with HPLC, to control if the entire peptide substrate was turned to product. Additionally the mixture was diluted (0.1–25 μM) and measured with Hitachi F-4500 fluorescence spectrophotometer at the same conditions as described above.
(§2) The microtiter plate fluorescence measurements were performed on a Tecan Infinite M200 microplate reader (Maennedorf, Switzerland) at λEx = 320 nm and λEm = 408 nm (lag time 9 μs, integration time […], gain 160, 170 or 182). The reactions (total volume 100 μl) were measured in black low-binding 96-well microtiter plates (NUNC). […] The reaction mixture for the calibration lines was prepared as described for the single fluorescence measurements. […]

Sirt3 [1] = target: T2, Sirt3 (Homo sapiens, UniProt Q9NTG7); assay: Continuous fluorescence assay, substrate kinetics; conditions: Sirt3 100 nM; fluorescence spectrophotometer (footnote a)
T2 construct: made in house
T2 sequence (Q9NTG7 1-399): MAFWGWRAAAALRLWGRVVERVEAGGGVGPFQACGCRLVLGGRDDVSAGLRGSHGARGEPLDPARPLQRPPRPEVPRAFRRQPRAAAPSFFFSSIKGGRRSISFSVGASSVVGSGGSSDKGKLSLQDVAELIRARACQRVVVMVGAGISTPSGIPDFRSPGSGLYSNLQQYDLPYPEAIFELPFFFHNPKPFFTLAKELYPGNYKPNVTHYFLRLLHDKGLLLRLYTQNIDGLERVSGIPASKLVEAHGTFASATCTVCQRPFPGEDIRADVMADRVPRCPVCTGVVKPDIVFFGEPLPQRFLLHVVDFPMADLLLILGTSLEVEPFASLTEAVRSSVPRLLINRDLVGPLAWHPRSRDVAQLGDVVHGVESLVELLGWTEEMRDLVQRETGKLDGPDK
Procedure: as §1, §2

Sirt4 = target: T3, Sirt4 (Homo sapiens, UniProt Q9Y6E7); assay: Continuous fluorescence assay, substrate kinetics; conditions: Sirt4 1000 nM; fluorescence spectrophotometer (footnote a)
T3 construct: made in house; host or cells: E. coli BL21 (DE3)
T3 sequence (Q9Y6E7 29-314): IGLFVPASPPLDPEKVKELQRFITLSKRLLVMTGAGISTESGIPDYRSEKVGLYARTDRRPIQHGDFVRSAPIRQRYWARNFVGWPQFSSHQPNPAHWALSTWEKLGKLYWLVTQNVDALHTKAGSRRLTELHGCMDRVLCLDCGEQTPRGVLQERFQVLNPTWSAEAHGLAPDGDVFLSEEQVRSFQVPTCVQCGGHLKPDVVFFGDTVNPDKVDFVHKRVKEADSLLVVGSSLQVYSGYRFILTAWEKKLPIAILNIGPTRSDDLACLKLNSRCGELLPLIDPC
Procedure: as §1, with “The reaction was started by adding human sirtuin (0.1–0.5 μM) and observed for 5–10 minutes.” left out, “lines. The slope of the linear regression of product formation against time yielded the reaction velocity rates in μM/s.” for “lines.”
as §2

Sirt6 [2] = target: T4, Sirt6 (Homo sapiens, UniProt Q8N6T7); assay: Ki determination with substrate 3, 96-well MTP fluorescence reader; conditions: Sirt6 0.5 µM; varying substrate 3, 500 µM NAD+ (saturating)
T4 construct: His-tag; made in house; host or cells: E. coli BL21 DE3
T4 sequence (Q8N6T7 whole entry): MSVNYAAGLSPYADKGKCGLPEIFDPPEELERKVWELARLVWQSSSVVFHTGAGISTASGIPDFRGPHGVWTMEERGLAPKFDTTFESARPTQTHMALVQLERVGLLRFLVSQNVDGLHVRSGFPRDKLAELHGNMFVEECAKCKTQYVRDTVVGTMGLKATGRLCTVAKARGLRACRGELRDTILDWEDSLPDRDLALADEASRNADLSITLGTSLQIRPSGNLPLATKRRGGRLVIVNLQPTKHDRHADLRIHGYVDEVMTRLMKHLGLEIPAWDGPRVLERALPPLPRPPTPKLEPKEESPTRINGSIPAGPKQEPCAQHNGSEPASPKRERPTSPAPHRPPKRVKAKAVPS
Procedure: (§3) All measurements were done in duplicates.
(§4) Supplementary Figure S13. […] Data are presented as mean ± s.d. (n=2) and lines represent the Michaelis-Menten-plot (left) and secondary plots (right). The apparent KM or Vmax^app-1 values from v/[S] characteristics were plotted against the corresponding inhibitor concentration.
as §4, with “S14. […] The reactions were performed with 0.5 µM Sirt6 and either 500 µM NAD^+ and varying concentrations of 3 (2-100 µM).” for “S13.”, “apparent” for “apparent KM or”
(§5) Supplementary Figure S15. Kinetic characteristics for sirtuin inhibitor 8. The reactions were performed with 0.01 µM Sirt2 /0.1 µM Sirt3 /0.5 µM Sirt6 and 500 µM NAD^+ and varying concentrations of 3 (0.07-100 µM). […] Data are presented as mean ± s.d. (n=2) and lines represent the Michaelis-Menten-plot (left) and secondary plots (right). The apparent Vmax^app-1 values from v/[S] characteristics were plotted against the corresponding inhibitor concentration.

Sirt3 [3] = target: T2, Sirt3; assay: as above; conditions: Sirt3 0.1 µM; varying substrate 3, 500 µM NAD+ (saturating)
Procedure: as §3, §4, §5

Sirt6 [4] = target: T4, Sirt6; assay: Isomer specific inhibition by thioxo peptides, HPLC; conditions: substrate 2a, 30 min, 20 °C
Procedure: After 30 min incubation at 20 °C reaction was stopped using 10% TFA solution. Inhibitor solutions were irradiated at 254 nm for 5 min. Separated isomers were applied in concentrations from 1 to 10 μM. The influence of cis content on sirtuin inhibition using fluorescence spectrometer was determined with 500 μM NAD^+, 5 μM 3, 0.1 μM Sirt2 and 0.1 μM 9. Reactions were done at 20 °C with 9 in GS and PSS (after 5 min irradiation at 254 nm). 9 in PSS was applied immediately after irradiation (transfer time ~5 s) and started directly by adding sirtuin. Reactions were measured within 1 min to avoid re-isomerization.
Supplementary Figure S36. Determination of IC50 value of 8 for Sirt6 in GS (?) and PSS (π). Data were fitted with U(%) = Umin(%) + (Umax(%) – Umin(%))/(1+10^(x-logIC50)) with U(%) percental turmover of substrate 2a; Umin(%) lowest turnover of substrate; Umax(%) maximal turnover of substrate (n=3).
Supplementary Figure S37. Inhibition of Sirt6 by 8 (?) and 9 (π).Data were fitted with U(%) = Umin(%) + (Umax(%) – Umin(%))/(1+10^(x-logIC50)) with U(%) percental turmover of substrate; Umin(%) lowest turnover of substrate 2a; Umax(%) maximal turnover of substrate (n=3).
Supplementary Figure S38. Determination of IC50 of 9 for Sirt6 with 72.4 % cis- (π) and 70.3 % (?) trans-content. Measurements were done with 10 µM peptide substrate (big figure) or 30 µM (small figure). Data were fitted with U(%) = Umin(%) + (Umax(%) – Umin(%))/(1+10^(x-logIC50)) with U(%) percental turmover of substrate 2a; Umin(%) lowest turnover of substrate; Umax(%) maximal turnover of substrate (n=3).

Sirt2 = target: T5, Sirt2 (Homo sapiens, UniProt Q8IXJ6); assay: Ki determination with substrate 3, 96-well MTP fluorescence reader; conditions: Sirt2 0.01 µM; varying substrate 3, 500 µM NAD+; read-out: Ki (3)
T5 construct: made in house
T5 sequence (Q8IXJ6 1-389): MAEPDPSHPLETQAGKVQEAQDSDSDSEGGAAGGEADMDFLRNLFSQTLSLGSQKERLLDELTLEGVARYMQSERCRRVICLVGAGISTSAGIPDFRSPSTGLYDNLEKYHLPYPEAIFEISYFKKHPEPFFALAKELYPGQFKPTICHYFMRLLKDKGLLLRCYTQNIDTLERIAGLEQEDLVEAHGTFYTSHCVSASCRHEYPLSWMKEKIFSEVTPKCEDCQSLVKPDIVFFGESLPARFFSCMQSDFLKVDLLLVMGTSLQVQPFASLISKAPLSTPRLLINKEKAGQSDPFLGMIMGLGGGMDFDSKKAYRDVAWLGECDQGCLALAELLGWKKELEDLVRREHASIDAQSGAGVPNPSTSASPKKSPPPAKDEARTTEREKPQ
Procedure: The microtiter plate fluorescence measurements were performed on a Tecan Infinite M200 microplate reader (Maennedorf, Switzerland) at λEx = 320 nm and λEm = 408 nm (lag time 9 μs, integration time […], gain 160, 170 or 182). The reactions (total volume 100 μl) were measured in black low-binding 96-well microtiter plates (NUNC). Assay-buffer, 500 μM NAD^+ and 0.07–200 μM peptide substrate were pre-incubated at 37 °C for 5 min. The reaction was started by adding human sirtuin (0.01–0.5 μM). The signals were converted into product concentration via calibration lines and the resulting data were evaluated as described above (single fluorescence measurement). The determination for the kinetic constants of NAD^+ was performed in the same way, except that the peptide concentration was fixed (5, 25 or 200 μM) and the NAD^+ concentration was varied (10–1500 μM). All measurements were done in duplicates. The reaction mixture for the calibration lines was prepared as described for the single fluorescence measurements. […] The resulting plots were analyzed by a competitive inhibition and non-competitive inhibition model using the program Sigma Plot 8. The linear regression of the apparent KM-values against the corresponding inhibitor concentration yielded the inhibitor constant Ki for competitive inhibition. The Ki for non-competitive inhibition was determined by linear regression of 1/apparent Vmax against the corresponding inhibitor concentration. The negative Ki value can be determined as intersection with the X-axis from these plots.
Supplementary Figure S15. Kinetic characteristics for sirtuin inhibitor 8. The reactions were performed with 0.01 µM Sirt2 /0.1 µM Sirt3 /0.5 µM Sirt6 and 500 µM NAD^+ and varying concentrations of 3 (0.07-100 µM). […] The negative Ki value can be determined as intersection with the X-axis from the Vmax^app-1/I plot.
Supplementary Figure S16. […] The negative Ki value can be determined as intersection with the X-axis from the Vmax^app-1/I plot.
Supplementary Figure S17. […] The negative Ki value can be determined as intersection with the X-axis from the Vmax^app-1/I plot.

Row | Structure (SMILES) | Km (Sirt5) [µM] | Km (Sirt3 [1]) [µM] | Km (Sirt4) [µM] | Ki (Sirt6 [2]) [nM] | Ki (Sirt3 [3]) [nM] | IC50 (Sirt6 [4]; inhibitor with 2.5% cis isomer (ground state)) [nM] | IC50 (Sirt6 [4]; inhibitor with 25% cis isomer (photo-excited state)) [nM] | Ki (Sirt2) [nM]
1 | CC(=O)N[C@@H](CCC(=O)O)C(=O)N[C@@H](C)C(=O)N[C@@H](CC(C)C)C(=O)N1CCC[C@H]1C(=O)N[C@@H](CCCCN)C(=O)N[C@@H](CCCCNC(=O)CCCCCCCCCCNC(=O)c1ccccc1N)C(=O)N[C@@H](Cc1ccc(O)c([N+](=O)[O-])c1)C(=O)NCC(=O)NCC(N)=O [peptide 3] (Ac-EALPKK([Aun-2Abz])[Tyr(3-NO2)]GG-NH2) | 46.1 ± 7.2 | 3.3 ± 0.4 | 49.5 ± 7.5 |  |  |  |  | 
2 | CCCCCCCCCCCCCC(=S)NCCCC[C@H](NC(=O)[C@H](CCCCN)NC(=O)[C@@H]1CCCN1C(=O)[C@H](CC(C)C)NC(=O)[C@H](C)NC(=O)[C@H](CCC(=O)O)NC(C)=O)C(=O)N[C@H](C(=O)NCC(=O)NCC(N)=O)[C@@H](C)O [peptide 8] (Ac-EALPK[Lys(thiomyristoyl)]TGG-NH2) |  |  |  | 400 ± 100 | 100 ± 20 | 1060 ± 120 | 1870 ± 180 | 80 ± 20
